# Source: patent US20240261297A1, “ANTI-CDK INHIBITORS FOR CANCER TREATMENT” (St. John's Cancer Institute, priority 2021, published 2024)
# Like-named read-outs stand apart in the source and are kept apart here.
# Assays:
# CDK5/p35 = CDK5/p35 (Homo sapiens, UniProt Q00535); assay: Radioisotope-based protein kinase assay; assay type: biochemical; conditions: Table 2
# Experimental: (§1) A series of test compounds were selected for initial screening against CDK isoforms. Protein kinase assays were performed with gold standard radioisotope-based assay formats to measuring enzyme activity remaining in presence and absence of inhibitor.
# The activity of compound I-3 was compared to that of a panel of CDKs and their respective binding partners (Tables 2 and 3).
# CKD9/Cyclin H = CKD9/Cyclin H (Homo sapiens, UniProt P50750); assay: Biochemical profile against CDKs and binding partners (Table 3)
# Experimental: as §1
# CDK1/Cyclin B1 = target: T1, CDK1/Cyclin B1 (Homo sapiens, UniProt P06493); assay: NanoBRET target engagement intracellular kinase assay in HEK293 cells; assay type: cell-based; conditions: transfected HEK293 cells; 10-dose, 3-fold from 10 μM, duplicate
# T1 construct: expressed in transfected cells; host or cells: HEK293
# Experimental: (§2) Compound 1-3 efficacy was assessed in several in vitro assays. A nanoBrET assay was used to measure intracellular kinase activity of I-3 with CDK2, CDK1, CDK7 and CDK9. Briefly, HEK293 cells were transfected with CDK2, CDK1, CDK7 and CDK9. The transfected cells were treated in duplicate with test compound I-3 (starting at 10 μM, 10-dose with 3-fold dilution) and target engagement was measured by NanoBRET assay (FIG. 2A and Table 4). Cellular thermal shift assay (CETSA) was also performed to evaluate drug target interaction in the cells. The CETSA method is built upon two concepts: cellular thermal shift and isothermal dose-response. The cellular thermal shift assay is based on the established fact that proteins that are complexed to a ligand become more resistant to heat induced unfolding. Isothermal dose response is used to determine a compound's potency in binding the target by measuring the thermal stability of the target treated with various concentrations of compound at a fixed temperature. Briefly, cell lysate was treated with I-3 (starting at 300 nM, 10-dose with 3-fold dilution) and incubated for 1 hour and cell lysates were then subjected to predetermined thermal aggregation temperature (58° C.) for another 20 min. Western blot was performed to determine the levels of target protein bound to I-3 (FIG. 2B).
# CDK2/Cyclin E1 = target: T2, CDK2/Cyclin E1 (Homo sapiens, UniProt P24941); assay: as above; assay type: cell-based; conditions: transfected HEK293 cells; 10-dose, 3-fold from 10 μM, duplicate
# T2 construct: expressed in transfected cells; host or cells: HEK293
# Experimental: as §2
# CDK7/cyclin H = CDK7/cyclin H (Homo sapiens, UniProt P50613); assay: as above; assay type: cell-based; conditions: transfected HEK293 cells; 10-dose, 3-fold from 10 μM, duplicate
# Experimental: as §2
# CDK9/cyclin T1 = CDK9/cyclin T1 (Homo sapiens, UniProt P50750); assay: as above; assay type: cell-based; conditions: transfected HEK293 cells; 10-dose, 3-fold from 10 μM, duplicate
# Experimental: as §2
# BT-549 = assay: Cell viability in breast cancer cell lines; assay type: cell-based; conditions: Homo sapiens; BT-549 (Mesenchymal), 72 hours; read-out: CTG and Alamar Blue Assay IC50
# Text: (§3) Tables 5 and 6 show assessment of in vitro efficacy of I-3 in a panel of breast cancer cell lines.
# MDA-MB-231 = assay: Cell viability in breast cancer cell lines; assay type: cell-based; conditions: Homo sapiens; MDA-MB-231 (Mesenchymal-like), 72 hours; read-out: CTG and Alamar Blue Assay IC50
# Text: as §3
# MCF-10A = assay: Cell viability in breast cell lines; assay type: cell-based; conditions: Homo sapiens, 72 hours
# Text: as §3
# [1] = Absolute bioavailability / PK after IV and PO dosing in CD-1 male mice; assay type: in vivo; conditions: for Vd / AUC(0-t) / Tmax: male
# Experimental: Absolute bioavailability of I-3 was assessed after IV and PO dosing in CD-1 male mice. Mean plasma concentration (FIG. 6) and PK parameters (Table 12) are shown. […] Plasma concentrations were observed up to 8 hours, and plasma concentrations were not observed at 24 hour time point. […] This is approximately 50% of the hepatic blood flow ([…]) in mice.
# [2] = In vivo safety (body weight, complete blood counts) in xenograft study; parameters: species or system mice
# Experimental: Anti-tumor efficacy of I-3 was evaluated in a MDA-MB-231 breast cancer xenograft model. Briefly, mice with MDA-MB-231 tumors were randomized to three treatment groups: control (Vehicle, n=8), 1-3 IV (10 mg/kg, n=8) and 1-3 PO (10 mg/kg, n=8) on a schedule of 14 days for daily (PO) or twice weekly (IV). Oral gavage treatments were formulated in 0.1% Tween 80 and 99.9% of 0.5% (w/v) of methyl cellulose in water. Intravenous treatments were formulated in 5% (v/v) DMSO, 2.5% (v/v) absolute ethanol, 2.5% (v/v) Solutol, and 90% Normal saline. Tumor growth was measured twice weekly by using a digital vernier caliper and high resolution images of tumor bearing mice were captured using a digital camera at weekly intervals of the study (Days 0, 7 and 14). Tumor volume was calculated as follows: […]
# At the end of the study, blood samples were collected from the animals for analysis of complete blood counts (CBC) using an automated hematology analyser (ADVIA2120, Siemens Ltd.). […] Once daily oral doses of 10 mg/Kg and twice weekly IV doses of 10 mg/kg were well-tolerated by the animals during the course of the treatment, with no changes in body weight or blood counts compared to vehicle control over the course of the study (Tables 14 and 15).
# CDK2/cyclin E = CDK2/cyclin E (Homo sapiens, UniProt P24941); assay: Cellular thermal shift assay (CETSA), isothermal dose response; assay type: binding; parameters: endogenous in cells; conditions: cell lysate, from 300 nM, 1 hour, 58° C. 20 min, Western blot
# Experimental: as §2
# [3] = CD-1, mouse, plasma, male CD1 mice, PO 10 mg/kg
# T1 sequence (P06493 whole entry): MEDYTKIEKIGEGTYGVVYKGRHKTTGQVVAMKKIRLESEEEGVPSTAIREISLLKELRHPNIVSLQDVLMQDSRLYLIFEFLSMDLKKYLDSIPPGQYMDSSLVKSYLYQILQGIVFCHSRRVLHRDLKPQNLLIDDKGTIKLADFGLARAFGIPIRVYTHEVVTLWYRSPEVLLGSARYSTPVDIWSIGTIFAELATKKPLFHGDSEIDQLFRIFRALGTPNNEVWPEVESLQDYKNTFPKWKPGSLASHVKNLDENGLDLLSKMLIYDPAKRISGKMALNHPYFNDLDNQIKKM
# T1 sequence (P14635 whole entry partner): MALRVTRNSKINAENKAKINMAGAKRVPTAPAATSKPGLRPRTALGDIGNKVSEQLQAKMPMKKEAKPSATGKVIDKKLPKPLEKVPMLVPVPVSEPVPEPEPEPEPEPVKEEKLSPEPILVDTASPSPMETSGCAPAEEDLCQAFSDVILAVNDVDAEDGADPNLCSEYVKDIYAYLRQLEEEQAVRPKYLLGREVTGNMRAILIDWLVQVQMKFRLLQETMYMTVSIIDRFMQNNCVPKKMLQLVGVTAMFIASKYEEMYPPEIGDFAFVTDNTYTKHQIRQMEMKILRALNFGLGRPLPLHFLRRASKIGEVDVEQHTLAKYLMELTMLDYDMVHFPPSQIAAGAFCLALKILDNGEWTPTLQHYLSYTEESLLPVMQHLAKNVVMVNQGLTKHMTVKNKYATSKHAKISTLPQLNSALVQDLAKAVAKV
# Sequence of CDK7/cyclin H (P50613 whole entry): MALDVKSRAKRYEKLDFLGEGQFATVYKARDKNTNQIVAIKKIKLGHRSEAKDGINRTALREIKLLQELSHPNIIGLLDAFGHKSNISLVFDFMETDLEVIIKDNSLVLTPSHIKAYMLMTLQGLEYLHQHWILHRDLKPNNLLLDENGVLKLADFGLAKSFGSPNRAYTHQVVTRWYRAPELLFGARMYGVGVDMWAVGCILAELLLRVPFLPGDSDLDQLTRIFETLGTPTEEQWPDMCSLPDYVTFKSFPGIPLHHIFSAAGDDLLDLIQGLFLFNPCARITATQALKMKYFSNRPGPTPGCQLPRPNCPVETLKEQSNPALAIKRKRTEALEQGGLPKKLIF
# Sequence of CDK7/cyclin H (P51946 whole entry partner): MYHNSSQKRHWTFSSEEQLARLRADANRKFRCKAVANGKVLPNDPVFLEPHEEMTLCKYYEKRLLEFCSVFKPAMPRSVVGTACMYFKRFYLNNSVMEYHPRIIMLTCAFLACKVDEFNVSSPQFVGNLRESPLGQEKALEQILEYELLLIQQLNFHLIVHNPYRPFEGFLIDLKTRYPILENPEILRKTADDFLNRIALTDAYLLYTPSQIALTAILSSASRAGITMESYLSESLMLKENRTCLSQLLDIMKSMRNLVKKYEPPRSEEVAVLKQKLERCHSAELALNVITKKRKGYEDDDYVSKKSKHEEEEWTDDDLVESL
# Sequence of CDK7/cyclin H (P51948 whole entry partner): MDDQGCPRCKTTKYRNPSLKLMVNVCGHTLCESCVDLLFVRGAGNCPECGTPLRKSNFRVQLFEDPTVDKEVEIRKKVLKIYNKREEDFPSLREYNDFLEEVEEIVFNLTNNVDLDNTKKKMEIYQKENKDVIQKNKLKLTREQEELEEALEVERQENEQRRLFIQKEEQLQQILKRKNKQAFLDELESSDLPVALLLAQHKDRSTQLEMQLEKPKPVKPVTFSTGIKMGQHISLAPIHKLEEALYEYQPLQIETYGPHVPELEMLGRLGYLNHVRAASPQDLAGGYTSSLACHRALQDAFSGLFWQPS
# Sequence of CDK9/cyclin T1 (P50750 whole entry): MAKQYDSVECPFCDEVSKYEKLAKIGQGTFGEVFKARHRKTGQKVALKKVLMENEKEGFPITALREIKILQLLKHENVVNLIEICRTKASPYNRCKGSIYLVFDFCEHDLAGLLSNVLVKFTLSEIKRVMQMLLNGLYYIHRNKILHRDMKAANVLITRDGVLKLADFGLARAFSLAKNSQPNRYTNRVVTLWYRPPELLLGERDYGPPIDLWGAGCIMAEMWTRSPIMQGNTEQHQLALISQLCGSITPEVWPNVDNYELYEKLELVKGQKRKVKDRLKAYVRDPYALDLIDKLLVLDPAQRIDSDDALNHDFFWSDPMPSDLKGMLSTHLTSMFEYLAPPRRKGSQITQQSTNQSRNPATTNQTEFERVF
# Sequence of CDK9/cyclin T1 (O60563 whole entry partner): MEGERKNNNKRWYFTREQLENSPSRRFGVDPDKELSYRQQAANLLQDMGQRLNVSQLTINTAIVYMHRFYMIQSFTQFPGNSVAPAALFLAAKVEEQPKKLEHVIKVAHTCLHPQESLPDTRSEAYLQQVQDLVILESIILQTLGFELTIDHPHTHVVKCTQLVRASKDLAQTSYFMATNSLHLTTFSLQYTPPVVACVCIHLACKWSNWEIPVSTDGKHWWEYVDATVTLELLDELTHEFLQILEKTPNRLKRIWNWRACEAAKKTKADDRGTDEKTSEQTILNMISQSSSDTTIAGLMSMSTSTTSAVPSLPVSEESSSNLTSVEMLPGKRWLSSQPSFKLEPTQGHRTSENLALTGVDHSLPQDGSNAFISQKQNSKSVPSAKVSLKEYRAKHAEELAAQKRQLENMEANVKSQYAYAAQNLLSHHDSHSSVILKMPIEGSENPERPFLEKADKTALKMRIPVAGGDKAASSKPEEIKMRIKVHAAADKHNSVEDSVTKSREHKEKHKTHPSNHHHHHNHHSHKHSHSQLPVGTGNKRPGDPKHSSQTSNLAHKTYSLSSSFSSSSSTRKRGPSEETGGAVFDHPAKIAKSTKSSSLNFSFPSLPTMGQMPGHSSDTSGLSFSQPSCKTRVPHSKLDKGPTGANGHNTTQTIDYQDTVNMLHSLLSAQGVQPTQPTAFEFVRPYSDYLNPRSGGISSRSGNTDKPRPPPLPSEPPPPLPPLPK
# Sequence of CKD9/Cyclin H (P50750 whole entry): as the sequence (P50750 whole entry) above
# Sequence of CDK5/p35 (Q00535 whole entry, canonical isoform): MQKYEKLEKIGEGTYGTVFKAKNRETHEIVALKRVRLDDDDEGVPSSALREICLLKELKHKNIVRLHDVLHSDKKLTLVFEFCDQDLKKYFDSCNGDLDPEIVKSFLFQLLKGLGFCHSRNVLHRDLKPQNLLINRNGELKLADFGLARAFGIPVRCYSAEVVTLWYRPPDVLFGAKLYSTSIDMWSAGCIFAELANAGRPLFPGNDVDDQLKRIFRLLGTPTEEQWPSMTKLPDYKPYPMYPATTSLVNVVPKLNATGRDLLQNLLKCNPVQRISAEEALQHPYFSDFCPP
# Sequence of CDK5/p35 (Q15078 whole entry partner, canonical isoform): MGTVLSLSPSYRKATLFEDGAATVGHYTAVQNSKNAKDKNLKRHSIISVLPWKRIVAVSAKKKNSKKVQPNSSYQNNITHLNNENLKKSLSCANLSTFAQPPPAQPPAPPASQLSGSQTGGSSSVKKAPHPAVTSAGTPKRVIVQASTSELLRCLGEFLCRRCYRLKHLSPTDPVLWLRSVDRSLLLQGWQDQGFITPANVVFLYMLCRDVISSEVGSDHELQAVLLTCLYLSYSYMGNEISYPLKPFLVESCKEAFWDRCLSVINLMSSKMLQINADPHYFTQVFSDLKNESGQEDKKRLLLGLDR
compound,measurement,setting,value
"Nc1nccc(-c2c[nH]c3nccc(Oc4cccc(F)c4)c23)n1 [I-3, 4-(4-(3-fluorophenoxy)-1H-pyrrolo[2,3-b]pyridin-3-yl)pyrimidin-2-amine]",IC50,CDK5/p35,8 nM
same,IC50,CKD9/Cyclin H,7 nM
same,IC50,CDK1/Cyclin B1,1070 nM
same,IC50,CDK2/Cyclin E1,22 nM
same,IC50,CDK7/cyclin H,403 nM
same,IC50,CDK9/cyclin T1,702 nM
same,IC50,BT-549,765 nM
same,IC50,MDA-MB-231,565 nM
same,IC50,"MCF-10A; MCF-10A (Normal breast-like), read-out: CTG and Alamar Blue Assay IC50",2070 nM
same,IC50,"MCF-10A; MCF-10A, Table 6, read-out: Cell viability by CellTiter Glo IC50",2070 nM
same,half-life,"[1]; CD-1, mouse, plasma, male CD1 mice, IV 1 mg/kg",3.4 ± 0.7 h
same,clearance,"[1]; CD-1, mouse, plasma, male CD1 mice, IV 1 mg/kg, read-out: CLp (converted)",41.7 mL/min/kg
same,AUC(0-inf),[1]; [3],6570 ± 542 ng·h/mL
same,Cmax,[1]; [3],2500 ± 55.5 ng/mL
same,Plasma clearance,"[1]; CD-1 male mice, IV",41.7 mL/min/kg
same,Plasma clearance as share of hepatic blood flow (5.4 L/kg) in mice,"[1]; CD-1 male mice, IV",approximately 50%
same,Volume of distribution compared to total body water content (0.7 L/kg),"[1]; CD-1 male mice, IV",17 fold
same,Time up to which plasma concentrations were observed,"[1]; CD-1 male mice, after IV administration, not observed at 24 hour",up to 8 hours
same,Bioavailability (% F),"[1]; male CD1 mice, PO 10 mg/kg vs IV 1 mg/kg",147.5 ± 14.8 % F
same,Vd,"[1]; CD-1, mouse, plasma, iv, 1 mg/kg, CD-1 male mice, IV, read-out: Volume of distribution",12.5 L/kg
same,AUC(0-t),"[1]; CD-1, mouse, plasma, iv, 1 mg/kg, male CD1 mice, IV 1 mg/kg",384 ± 98.9 ng·h/mL
same,Vd,"[1]; CD-1, mouse, plasma, iv, 1 mg/kg, male CD1 mice, IV 1 mg/kg, read-out: Vdss",6.8 ± 2.4 L/kg
same,AUC(0-t),"[1]; CD-1, mouse, plasma, po, 10 mg/kg, CD-1 male mice, PO 10 mg/kg",5670 ng·h/mL
same,Tmax,"[1]; CD-1, mouse, plasma, po, 10 mg/kg, CD-1 male mice, PO 10 mg/kg, read-out: Tmax (oral absorption)",0.5 to 1 h
same,AUC(0-t),"[1]; CD-1, mouse, plasma, po, 10 mg/kg, male CD1 mice, PO 10 mg/kg",5670 ± 569 ng·h/mL
same,Tmax,"[1]; CD-1, mouse, plasma, po, 10 mg/kg, male CD1 mice, PO 10 mg/kg, read-out: Tmax",1 ± 0.3 h
same,bioavailability,"[1]; mouse, plasma, CD-1 male mice, PO 10 mg/kg, read-out: Oral suspension bioavailability (% F)",> 100%
same,"Body Weight, mean ± SE","[2]; IV 10 mg/kg, Day 0",22.1 ± 0.6 g
same,"Body Weight, mean ± SE","[2]; IV 10 mg/kg, Day 7",22.3 ± 1.0 g
same,"Body Weight, mean ± SE","[2]; IV 10 mg/kg, Day 14",22.9 ± 0.7 g
same,Hematocrit (Mean ± SE),"[2]; IV 10 mg/kg, end of study",38.4 ± 3.7%
same,Hemoglovin (Mean ± SE),"[2]; IV 10 mg/kg, end of study",12.8 ± 0.8 g/dL
same,Mean corpuscular hemoglobin (Mean ± SE),"[2]; IV 10 mg/kg, end of study",15.2 ± 0.2 pg
same,Mean corpuscular hemoglobin concentration (Mean ± SE),"[2]; IV 10 mg/kg, end of study",30.3 ± 0.2 g/dL
same,Mean corpuscular volume (Mean ± SE),"[2]; IV 10 mg/kg, end of study",50.2 ± 0.3 fL
same,Platelets (Mean ± SE),"[2]; IV 10 mg/kg, end of study",802.4 ± 107.9 10^3 cells/μL
same,Red blood cells (Mean ± SE),"[2]; IV 10 mg/kg, end of study",8.4 ± 0.5 10^6 cells/μL
same,White blood cells (Mean ± SE),"[2]; IV 10 mg/kg, end of study",22.9 ± 8.3 10^3 cells/μL
same,Tolerability,"[2]; PO 10 mg/Kg once daily and IV 10 mg/kg twice weekly, 14 days",well-tolerated
same,"Body Weight, mean ± SE","[2]; PO 10 mg/kg, Day 0",21.6 ± 0.4 g
same,"Body Weight, mean ± SE","[2]; PO 10 mg/kg, Day 7",20.9 ± 0.9 g
same,"Body Weight, mean ± SE","[2]; PO 10 mg/kg, Day 14",21.6 ± 0.9 g
same,Hematocrit (Mean ± SE),"[2]; PO 10 mg/kg, end of study",34.2 ± 0.9%
same,Hemoglovin (Mean ± SE),"[2]; PO 10 mg/kg, end of study",10.6 ± 0.3 g/dL
same,Mean corpuscular hemoglobin (Mean ± SE),"[2]; PO 10 mg/kg, end of study",15.3 ± 0.1 pg
same,Mean corpuscular hemoglobin concentration (Mean ± SE),"[2]; PO 10 mg/kg, end of study",31.1 ± 0.2 g/dL
same,Mean corpuscular volume (Mean ± SE),"[2]; PO 10 mg/kg, end of study",44.8 ± 4.1 fL
same,Platelets (Mean ± SE),"[2]; PO 10 mg/kg, end of study",762.1 ± 99.3 10^3 cells/μL
same,Red blood cells (Mean ± SE),"[2]; PO 10 mg/kg, end of study",6.9 ± 0.2 10^6 cells/μL
same,White blood cells (Mean ± SE),"[2]; PO 10 mg/kg, end of study",36.6 ± 6.8 10^3 cells/μL
same,Complete blood counts vs control group,"[2]; end of study, IV and PO 10 mg/kg",no significant differences
same,"Binding of CDK2/Cyclin E in drug target engagement methods (CETSA, NanoBRET)",CDK2/cyclin E,potent binding (nanomolar range)
